Test results published in patent US20170245538A1, “SOLID DISPERSION OF AMIDE FLAVOR COMPOUNDS” (Firmenich SA, priority 2014, published 2017).

Assay: dissolution kinetics in water followed on-line by UV/Vis spectroscopy
Type: physicochemical
Settings: 20 mg pure compound in 1L milli Q water at 60° C.
Protocol: The dissolution kinetics of example 4 in water was tested. A final concentration of (E)-3-(3,4-dimethoxyphenyl)-N-(4-methoxyphenethyl)acrylamide of 20 ppm dissolved in water was targeted. Eighty (80) mg of a solid dispersion of (E)-3-(3,4-dimethoxyphenyl)-N-(4-methoxyphenethyl)acrylamide and gum arabic was dispersed in 1L of milli Q water heated at 60° C. The solution was stirred mechanically by the means of a paddle stirrer at 200 rpm. The dissolution process was followed on-line by monitoring the UV signal of dissolved (E)-3-(3,4-dimethoxyphenyl)-N-(4-methoxyphenethyl)acrylamide with UV/Vis spectroscopy using a fiber optic probe from Ocean Optics. The powder was entirely dissolved after 2 minutes. The maximum dissolution rate during the process was 28 ppm/minute.
Comparative example: (E)-3-(3,4-dimethoxyphenyl)-N-(4-methoxyphenethyl)acrylamide pure. A final concentration of (E)-3-(3,4-dimethoxyphenyl)-N-(4-methoxyphenethyl)acrylamide of 20 ppm dissolved in water was targeted. Twenty (20) mg of the pure (E)-3-(3,4-dimethoxyphenyl)-N-(4-methoxyphenethyl)acrylamide were dispersed in 1L of milli Q water heated at 60° C. The dissolution process yielded 50% of the target concentration of 20 ppm (10 ppm) after 78 minutes. The target concentration could not be achieved after 6 hours. The concentration of dissolved (E)-3-(3,4-dimethoxyphenyl)-N-(4-methoxyphenethyl)acrylamide after 6 hours was 15 ppm (75% of target).

Question: Which “time to 50% of the target concentration of 20 ppm (10 ppm)” value does the source give for `COc1ccc(CCNC(=O)/C=C/c2ccc(OC)c(OC)c2)cc1` [(E)-3-(3,4-dimethoxyphenyl)-N-(4-methoxyphenethyl)acrylamide] here?
Answer: The value was 78 min.

Question: What about the “concentration of dissolved compound after 6 hours” value (after 6 hours) of the same molecule?
Answer: The value was 15 ppm.

Question: What about the “dissolved compound after 6 hours as % of target” value (after 6 hours, target 20 ppm) of the same molecule?
Answer: Its value is 75 % of target.

Question: And the “time to achieve the target concentration (20 ppm)” value (target could not be achieved)?
Answer: Its value is over 6 h.
